Experimental data reported in the supplement of paper PMC10307832.

Tests used:
Assay in all cases: relative viability (nuclei count vs DMSO), 5 days (fraction); higher = more cells survive
Seliciclib = compound: CC[C@H](CO)Nc1nc(NCc2ccccc2)c2ncn(C(C)C)c2n1 [Seliciclib]
Outline: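 Viability was read as treated-well nuclei divided by vehicle-well nuclei, using the median across plates. Lung cancer cell lines in 1536-well plates were kept overnight at 37 °C, pinned with five √10-spaced library-drug doses, and after 5 days were Hoechst-stained, imaged at 4× and counted in MetaXpress. Plates passed only with control CV below 25% and at least one doubling.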

Seliciclib + Phenformin = compound: CC[C@H](CO)Nc1nc(NCc2ccccc2)c2ncn(C(C)C)c2n1 [Seliciclib] + N=C(N)NC(=N)NCCc1ccccc1 [Phenformin] (partner 250 µM)
Outline: (§1)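 Lung cancer cell lines in 1536-well plates were dosed by pin tool the day after seeding, either with one drug alone or with a fixed anchor-drug dose plus five library-drug doses (not always all listed) in √10 steps. After 5 days, cells were fixed and their nuclei stained in one step (final 0.05% Triton X-100, 1% formaldehyde, 1 ug/ml Hoechst), then counted on 4× images. Relative viability is the nuclei count in treated wells divided by that in vehicle wells. Values are medians of duplicate plates.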

Seliciclib + Olaparib = compound: CC[C@H](CO)Nc1nc(NCc2ccccc2)c2ncn(C(C)C)c2n1 [Seliciclib] + O=C(c1cc(Cc2n[nH]c(=O)c3ccccc23)ccc1F)N1CCN(C(=O)C2CC2)CC1 [Olaparib] (partner 8 µM)
Outline: as §1

Seliciclib + Trametinib = compound: CC[C@H](CO)Nc1nc(NCc2ccccc2)c2ncn(C(C)C)c2n1 [Seliciclib] + CC(=O)Nc1cccc(-n2c(=O)n(C3CC3)c(=O)c3c(Nc4ccc(I)cc4F)n(C)c(=O)c(C)c32)c1 [Trametinib] (partner 0.02 µM)
Outline: as §1

Row | Cell Line | relative viability (Seliciclib; 0.08 µM) | relative viability (Seliciclib; 0.253 µM) | relative viability (Seliciclib; 0.8 µM) | relative viability (Seliciclib; 2.53 µM) | relative viability (Seliciclib; 8 µM) | relative viability (Seliciclib + Phenformin; first compound 0.08 µM) | relative viability (Seliciclib + Phenformin; first compound 0.253 µM) | relative viability (Seliciclib + Phenformin; first compound 0.8 µM) | relative viability (Seliciclib + Phenformin; first compound 2.53 µM) | relative viability (Seliciclib + Phenformin; first compound 8 µM) | relative viability (Seliciclib + Olaparib; first compound 0.08 µM) | relative viability (Seliciclib + Olaparib; first compound 0.253 µM) | relative viability (Seliciclib + Olaparib; first compound 0.8 µM) | relative viability (Seliciclib + Olaparib; first compound 2.53 µM) | relative viability (Seliciclib + Olaparib; first compound 8 µM) | relative viability (Seliciclib + Trametinib; first compound 0.08 µM) | relative viability (Seliciclib + Trametinib; first compound 0.253 µM) | relative viability (Seliciclib + Trametinib; first compound 0.8 µM) | relative viability (Seliciclib + Trametinib; first compound 2.53 µM) | relative viability (Seliciclib + Trametinib; first compound 8 µM)
1 | NCI-H1755 | 1.01 | 0.995 | 0.951 | 0.99 | 0.989 | 0.601 | 0.6 | 0.586 | 0.584 | 0.599 | 0.882 | 0.914 | 0.873 | 0.885 | 0.846 | 0.804 | 0.658 | 0.757 | 0.776 | 0.71
2 | NCI-H1437 | 0.965 | 1.12 | 0.968 | 0.95 | 0.872 | 0.347 | 0.353 | 0.291 | 0.241 | 0.262 | 0.641 | 0.665 | 0.595 | 0.607 | 0.431 | 0.5 | 0.551 | 0.562 | 0.398 | 0.401
3 | NCI-H2085 | 1.01 | 1.04 | 1.01 | 0.961 | 0.873 | 0.714 | 0.658 | 0.692 | 0.71 | 0.611 | 0.734 | 0.845 | 0.73 | 0.738 | 0.63 | 0.509 | 0.475 | 0.513 | 0.41 | 0.343
4 | H3255 | 1.07 | 0.94 | 1.08 | 0.965 | 0.888 | 0.357 | 0.357 | 0.368 | 0.322 | 0.348 | 0.545 | 0.575 | 0.552 | 0.518 | 0.518 | 0.629 | 0.52 | 0.652 | 0.631 | 0.494
5 | NCI-H650 | 0.942 | 0.892 | 1.24 | 0.591 | 0.831 | 0.48 | 0.467 | 0.532 | 0.257 | 0.46 | 0.354 | 0.368 | 0.417 | 0.305 | 0.37 | 0.96 | 1.08 | 1.01 | 0.863 | 0.877
6 | LCLC-103H | 1 | 0.934 | 0.929 | 0.836 | 0.914 | 0.393 | 0.337 | 0.347 | 0.308 | 0.316 | 0.671 | 0.81 | 0.748 | 0.774 | 0.704 | 0.666 | 0.711 | 0.647 | 0.681 | 0.682
